Patent US20020019533A1, “PIPERIDINE DERIVATIVES AND ANTI-PLATELET AGENTS CONTAINING THE SAME” (priority 1994, published 2002)

Experiments:
serotonin 2 receptor = biological target: T1, serotonin 2 receptor (Bos taurus, UniProt Q75Z89); assay: Binding affinity to the serotonin 2 receptor, [3H]-ketanserin, bovine cerebral cortex membrane; details: negative logarithm of Ki, 3 nM [3H]-ketanserin, 25° C., 30 minutes
T1 construct: evaluated using a bovine cerebral cortex membrane sample; from tissue; host or cells: bovine cerebral cortex membranes
Procedure: The binding affinity to the serotonin 2 receptor was evaluated using a bovine cerebral cortex membrane sample. To 200 μl of a bovine membrane sample adjusted to 50 mg (wet weight) membrane/ml were added 200 μl of 3 nM [^3H]-ketanserin and 200 μl of a test compound solution prepared by dissolving a test compound in 1.7% ethanol, followed by mixing. The mixture was incubated at 25° C. for 30 minutes and filtered with a glass filter. The radioactivity trapped on the filter was measured with a liquid scintillation counter. The non-specific binding was defined by 10^−6 M LY53857. The concentration of the test compound which inhibits 50% of the specific binding of [^3H]-ketanserin (i.e., IC50 value) was obtained, and the Ki value was calculated in accordance with the following equation. The results are shown as the negative logarithm of the Ki value (i.e., pKi value). [formula]
In the equation, Ki indicates the dissociation constant and [L] indicates the concentration of [^3H]-ketanserin.

platelet of SD rats = assay: In vitro anti-platelet effect: platelet aggregation induced by ADP + serotonin in rat platelet rich plasma; type: cell-based; details: rat PRP, 0.5 μM or 0.8 μM ADP + serotonin, 50% inhibition of the serotonin-caused increase in aggregation
Procedure: The anti-platelet effect due to the serotonin antagonistic activity was measured in vitro using the platelet of SD rats (body weight: about 300 to 400 g, male). Platelet rich plasma (PRP) and platelet poor plasma (PPP) were prepared from blood with 0.38% sodium citrate which was obtained from aorta abdominalis of a rat under diethyl ether anesthesia. The platelet concentration of PRP was adjusted to 5×10^8 platelets/ml by adding PPP. Then, the test compound dissolved in 0.4% aqueous ethanol was added, and the mixture was incubated at 37° C. for 3 minutes. The platelet aggregation induced by addition of 0.5 μM or 0.8 μM adenosine diphosphate (ADP)+ serotonin was measured as an increase in optical transmittance of PRP. The concentration of the test compound which inhibits 50% of the increase in platelet aggregation which is obtained with serotonin without a test compound was measured, and its negative logarithm (pIC50) was calculated.

[1] = test system: platelet aggregation by serotonin; assay: In vivo anti-platelet effect after oral administration: ADP + serotonin induced aggregation of PRP taken 2 hours after dosing; design: species or system SD rats; details: 2 hours after administration, arabic gum group = 100%, n=3
Procedure: The anti-platelet effect due to the serotonin antagonistic activity was measured in vivo using SD rats (body weight: about 210 to 330 g, male). Two hours after the administration of the test compound, the rat was anesthetized with diethyl ether and platelet rich plasma (PRP) and platelet poor plasma (PPP) were prepared from blood with 0.38% sodium citrate which was obtained from aorta abdominalis of the rat. The platelet concentration of PRP was adjusted to 5×10^8 platelets/ml by adding PPP. Then, the PRP was incubated at 37° C. for 3 minutes, and platelet aggregation induced by addition of 0.7 μM adenosine diphosphate (ADP)+ serotonin was measured as an increase in optical transmittance of PRP. The aggregation occurred by addition of ADP alone and the maximum aggregation ratio by the simultaneous addition of ADP and serotonin were measured with respect to each group, and increase in aggregation caused by serotonin was calculated. The increase in aggregation caused by serotonin in the arabic gum administered group was taken as 100%, and the effect of the test compound was judged using as an index the increase in aggregation caused by the serotonin in the test compound-administered group (n=3).

[2] = test system: head twitch of mouse induced by 5-hydroxytryptophan (5HTP); assay: Inhibiting effect on head twitch of mouse induced by 5-hydroxytryptophan (5HTP); type: in vivo, ICR mouse; details: oral, 90 minutes before 5HTP (180 mg/kg i.p.); 50% inhibition of the number of head twitches
Procedure: The serotonin antagonistic activity in the central nerve system was evaluated by measuring the inhibiting effect on head twitch of mouse induced by 5-hydroxytryptophan (5HTP) A test compound in an amount of 1, 3, 10, or 30 mg was respectively dissolved in 100 ml of water and, 90 minutes before 5HTP administration, the solution (10 ml/kg body weight) was orally administered to a ICR mouse (body weight: 27 to 32 g, male) fasted from the previous day. As a control, 5% arabic gum was used. Carbidopa (6 mg/kg) was subcutaneously administered and, after 15 minutes, 5HTP (180 mg/kg) was intraperitoneally administered. From the 15 minutes after 5HTP administration, the number of head twitches occurred within 2 minutes were counted. The concentration of the test compound which inhibits 50% of the number of head twitches in the 5% arabic gum administered group was obtained.

T1 sequence (Q75Z89 whole entry): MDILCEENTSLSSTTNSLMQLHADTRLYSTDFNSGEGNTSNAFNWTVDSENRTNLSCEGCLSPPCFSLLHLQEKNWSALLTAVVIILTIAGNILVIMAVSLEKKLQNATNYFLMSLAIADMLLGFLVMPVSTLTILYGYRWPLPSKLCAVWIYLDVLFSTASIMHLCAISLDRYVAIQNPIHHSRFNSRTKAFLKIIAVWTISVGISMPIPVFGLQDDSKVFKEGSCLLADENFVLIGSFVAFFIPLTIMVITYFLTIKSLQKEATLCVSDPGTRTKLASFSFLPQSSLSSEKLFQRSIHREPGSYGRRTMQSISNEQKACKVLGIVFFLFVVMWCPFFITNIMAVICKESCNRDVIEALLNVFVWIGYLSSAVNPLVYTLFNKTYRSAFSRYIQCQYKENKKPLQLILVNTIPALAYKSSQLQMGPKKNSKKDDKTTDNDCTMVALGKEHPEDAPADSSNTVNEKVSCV

SMILES: O=C(NCCN1CCC(=C2c3ccccc3C=Cc3ccccc32)CC1)C1CCNCC1 [Compound 2]
- pKi (serotonin 2 receptor): 8.6
- pIC50 (platelet of SD rats): 7.3

SMILES: O=CN1CCC(C(=O)NCCN2CCC(=C3c4ccccc4C=Cc4ccccc43)CC2)CC1 [Compound 3]
- Ki (serotonin 2 receptor): 3.98 nM
- IC50 (platelet of SD rats; Platelet): 63.1 nM
- Increase in aggregation by serotonin ([1]; 0.1 mg/kg oral): 75.7%
- Increase in aggregation by serotonin ([1]; 0.3 mg/kg oral): 57.3%
- Increase in aggregation by serotonin ([1]; 1 mg/kg oral): 24.3%
- Increase in aggregation by serotonin ([1]; 3 mg/kg oral): 27%
- Increase in aggregation by serotonin ([1]; 10 mg/kg oral): −2.7%
- ID50 [2]: 0.39 mg/kg

SMILES: CC(C)(C)OC(=O)N1CCC(C(=O)NCCN2CCC(=C3c4ccccc4C=Cc4ccccc43)CC2)CC1 [Compound 5]
- pKi (serotonin 2 receptor): 8.0
- pIC50 (platelet of SD rats): 6.5

SMILES: O=CN1CCC(C(=O)NCCN2CCC(=C3c4ccccc4C=Cc4ccccc43)CC2)CC1 [Compound 6]
- pIC50 (platelet of SD rats): 6.9

SMILES: CC(=O)NCC(=O)N1CCC(C(=O)NCCN2CCC(=C3c4ccccc4C=Cc4ccccc43)CC2)CC1 [Compound 8]
- pKi (serotonin 2 receptor): 7.9
- pIC50 (platelet of SD rats): 6.6

SMILES: O=C(NCCN1CCC(=C2c3ccccc3C=Cc3ccccc32)CC1)C1CCCCN1 (centres unmarked) [Compound 9]
- pKi (serotonin 2 receptor): 7.8
- pIC50 (platelet of SD rats): 7.1
- Increase in aggregation by serotonin ([1]; 0.3 mg/kg oral): 57.3%

SMILES: O=CN1CCN(C(=O)NCCN2CCC(=C3c4ccccc4C=Cc4ccccc43)CC2)CC1 [Compound 11]
- pKi (serotonin 2 receptor): 8.8
- pIC50 (platelet of SD rats): 7.0

SMILES: NC1CCC(C(=O)NCCN2CCC(=C3c4ccccc4C=Cc4ccccc43)CC2)CC1 (centres unmarked) [Compound 12]
- pKi (serotonin 2 receptor): 8.6
- pIC50 (platelet of SD rats): 6.6

SMILES: CCOC(=O)NCCN1CCC(=C2c3ccccc3C=Cc3ccccc32)CC1 [Compound 16]
- pIC50 (platelet of SD rats): 7.6

SMILES: CC(C)(C)OC(=O)NCCN1CCC(=C2c3ccccc3C=Cc3ccccc32)CC1 [Compound 17]
- pIC50 (platelet of SD rats): 7.0
- Increase in aggregation by serotonin ([1]; 0.3 mg/kg oral): 50.7%

SMILES: NC1(C(=O)NCCN2CCC(=C3c4ccccc4C=Cc4ccccc43)CC2)CCCCC1 [Compound 18]
- pKi (serotonin 2 receptor): 8.9
- pIC50 (platelet of SD rats): 7.3
- Increase in aggregation by serotonin ([1]; 0.3 mg/kg oral): 94.9%

SMILES: CC(=O)NC1(C(=O)NCCN2CCC(=C3c4ccccc4C=Cc4ccccc43)CC2)CCCCC1 [Compound 19]
- pKi (serotonin 2 receptor): 8.3
- pIC50 (platelet of SD rats): 6.4

SMILES: CC(C)(C)OC(=O)NC1(C(=O)NCCN2CCC(=C3c4ccccc4C=Cc4ccccc43)CC2)CCCCC1 [Compound 20]
- pKi (serotonin 2 receptor): 8.0
- pIC50 (platelet of SD rats): 6.3

SMILES: O=CNC1(C(=O)NCCN2CCC(=C3c4ccccc4C=Cc4ccccc43)CC2)CCCCC1 [Compound 21]
- pKi (serotonin 2 receptor): 7.8
- pIC50 (platelet of SD rats): 6.5

SMILES: CN(C)C(=O)NC1(C(=O)NCCN2CCC(=C3c4ccccc4C=Cc4ccccc43)CC2)CCCCC1 [Compound 22]
- pKi (serotonin 2 receptor): 8.2
- pIC50 (platelet of SD rats): 5.8

SMILES: NCCCC(=O)NCCN1CCC(=C2c3ccccc3C=Cc3ccccc32)CC1 [Compound 23]
- pIC50 (platelet of SD rats): 7.6

SMILES: O=CNCCCC(=O)NCCN1CCC(=C2c3ccccc3C=Cc3ccccc32)CC1 [Compound 24]
- pKi (serotonin 2 receptor): 9.8
- pIC50 (platelet of SD rats): 7.2

SMILES: CC(=O)NCCCC(=O)NCCN1CCC(=C2c3ccccc3C=Cc3ccccc32)CC1 [Compound 25]
- pKi (serotonin 2 receptor): 9.2
- pIC50 (platelet of SD rats): 6.6

SMILES: CC(C)(C)OC(=O)NCCCC(=O)NCCN1CCC(=C2c3ccccc3C=Cc3ccccc32)CC1 [Compound 26]
- pIC50 (platelet of SD rats): 7.2

SMILES: CN(C)C(=O)NCCCC(=O)NCCN1CCC(=C2c3ccccc3C=Cc3ccccc32)CC1 [Compound 27]
- pKi (serotonin 2 receptor): 9.2
- pIC50 (platelet of SD rats): 6.9

SMILES: CNCCCC(=O)NCCN1CCC(=C2c3ccccc3C=Cc3ccccc32)CC1 [Compound 28]
- pIC50 (platelet of SD rats): 6.6

SMILES: CN(CCCC(=O)NCCN1CCC(=C2c3ccccc3C=Cc3ccccc32)CC1)C(=O)OC(C)(C)C [Compound 29]
- pIC50 (platelet of SD rats): 7.1

SMILES: CC(C)(C)OC(=O)NCCCN1CCC(=C2c3ccccc3C=Cc3ccccc32)CC1 [Compound 31]
- pKi (serotonin 2 receptor): 8.8

SMILES: C1=Cc2ccccc2C(=C2CCN(CCCCN3CCOCC3)CC2)c2ccccc21 [Compound 41]
- pKi (serotonin 2 receptor): 8.2
- pIC50 (platelet of SD rats): 6.9
- Increase in aggregation by serotonin ([1]; 0.3 mg/kg oral): 91.5%

SMILES: C1=Cc2ccccc2C(=C2CCN(CCCCN3CCSCC3)CC2)c2ccccc21 [Compound 42]
- pKi (serotonin 2 receptor): 8.7
- pIC50 (platelet of SD rats): 6.6

SMILES: CN1CCC(=C2c3ccccc3C=Cc3ccccc32)CC1 [cycloheptadine, reference compound]
- ID50 [2]: 0.12 mg/kg
